Experiments:
[1] = Measurement of relaxivity (r1, r2), phantom in 3T MRI; type: physicochemical; conditions: tertiary distilled water, 0.0625-1 mM, linear regression, in mM-1 s-1 (unit assumed)
Experimental: The relaxivity (r1, r2) of each of synthesized Gd-DO3A-Va, and cyclic commercial contrast agents Gadovist® and Dotarem® as comparison groups material was measured. Specifically, a phantom was prepared by diluting the gadolinium complex in tertiary distilled water to five concentrations (0.0625, 0.125, 0.25, 0.5, 1 mM), and then T1 and T2 relaxation times were measured in 3T MRI. Thus, R (Relaxation rate=1/T) of each concentration was calculated and the relaxivity (r1, r2) result of the gadolinium complex was obtained through linear regression analysis (see FIG. 3) and shown in a following Table 1.

[2] = molecular target: amyloid beta polymer (Homo sapiens, UniProt P05067); experiment: Amyloid beta polymer targeting ability, MRI phantom experiment; type: binding; conditions: incubated with amyloid beta polymer 37° C. 24 hours, washed, 9.4T MR
Chain of amyloid beta polymer (P05067 672-713 limits assumed): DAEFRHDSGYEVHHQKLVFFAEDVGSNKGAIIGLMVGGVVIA
Experimental: • (1) 221.5 uL of HFIP was added to 1 mg of amyloid beta at a concentration of 1 mM, followed by shaking for 1 hour at room temperature using a shaker to remove preaggregation. • (2) The amyloid beta from which the preaggregation was removed was dried, and 221.5 uL of DMSO was added thereto to achieve a 1 mM concentration. Using a mixer and sonicator, a suspension thereof was prepared, and 878.5 uL of PBS (1×, pH 7.4) was added thereto to achieve a 0.2 mM concentration. • (3) After incubating the suspension at 37° C. for 4 days using a shaker, the polymerized amyloid beta polymer was dispensed by 200 uL. Then, 20 μL of a solution in which each of Gd-DO3A-Va and the commercial contrast agent (Gadovist®) was dissolved in PBS at 2 mM concentration was added thereto. The incubation was carried out thereon at 37° C. for 24 hours using a shaker. • (4) After 24 hours has elapsed, centrifugation was performed thereon to remove the supernatant therefrom. The amyloid beta polymer was washed using PBS. 200 μL of a solution of PBS:DMSO=9:1 was added to a pellet to prepare an MRI phantom sample. As a control, a phantom sample obtained by incubating only the amyloid beta polymer was used. […]

Row | Compound | relaxivity r1 [1] | relaxivity r2 [1] | contrast enhancement / signal intensity compared to phantom of only amyloid beta polymer [2]
1 | O=C([O-])CN1CCN(CC(=O)[O-])CCN([C@H](CO)[C@H](O)CO)CCN(CC(=O)[O-])CC1.[Gd+3] (racemic) [Gadovist ®] | 3.9 ± 0.1 | 4.8 ± 0.1 | little difference in contrast enhancement effect
2 | CNC[C@H](O)[C@@H](O)[C@H](O)[C@H](O)CO.O=C([O-])CN1CCN(CC(=O)[O-])CCN(CC(=O)O)CCN(CC(=O)[O-])CC1.[Gd+3] [Dotarem ®] | 3.4 ± 0.1 | 3.9 ± 0.2 | 

Reference: patent publication US20250073357A1, “GADOLINIUM-BASED COMPOUND, AND MRI CONTRAST AGENT INCLUDING SAME” (THERANOCURE CO., LTD., priority 2021, published 2025)
